Tested on: LPS-induced tumor necrosis factor-α (TNF-α) production in mixed glial cells
Assay: In vitro CNS inflammation assay
Assay type: cell-based
Details: Rattus norvegicus, Glial cell, 6 h, LPS 50 ng/ml, TNF-α ELISA
Experimental: This protocol describes the procedure used to induce experimental inflammation by lipopolysacchride (LPS) in cultured CNS mixed glial cells. The anti-inflammatory effect of test compounds was evaluated against LPS-induced tumor necrosis factor-α (TNF-α) production in mixed glial cells.
The following steps were performed the day of the assay:
The mixed glial cells (7 days from initial culture) were replenished with mixed glial culture media consist of 50:50:10:1 combination of DMEM (high glucose: Invitrogen Corp), F-12 (Invitrogen Corp), 100% fetal bovine serum and 100×N-2 supplement (Invitrogen Corp). These mixed glial cells were prepared according to Park L C, Calingasan N Y, Uchida K, Zhang H, Gibson G E. (2000) “Metabolic impairment elicits brain cell type-selective changes in oxidative stress and cell death in culture.” J Neurochem 74(1):114-124 with some modification. Briefly, rat […] forebrains (1-2 day old) were isolated, triturated and plated on 96-well plates (20,000 cells per well) in mixed glial media in 5% CO2 incubator at 37° C. […]
The quantitative determination of TNF-αpresent in cell culture medium produced by mixed glial cells was performed using a solid phase sandwich enzyme linked immno-sorbent assay (ELISA) method based on the protocol and reagents provided by Biosource rat TNF-α ELISA kit (Biosource International).

In the case of `OC1CCN(Cc2onc(-c3ccc(F)cc3)c2-c2ccnc(NC3CCCCC3)n2)CC1` [I-1], the IC50 is reported as no more than 1 µM.

Source: patent publication US20040132755A1, “Isoxazoles and uses thereof” (priority 2002, published 2004)
